Data as given in PubChem BioAssay (NCI).
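Step 1: Grow cells in 96-well plates. Step 2: Expose to compound for 48 hours at 5 concentrations. Step 3: Interpolate endpoints linearly; if unreached, use highest concentration. TGI: concentration producing complete growth inhibition.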

Tests used:
Test in all cases: DTP human tumour cell line panel, 48 h
MDA-N = test system: MDA-N
CAKI-1 renal = test system: CAKI-1 renal
U251 CNS = test system: U251 CNS
HOP-92 NSCLC = test system: HOP-92 NSCLC
SK-MEL-28 melanoma = test system: SK-MEL-28 melanoma
HL-60(TB) leukemia = test system: HL-60(TB) leukemia
RXF 393 renal = test system: RXF 393 renal
SN12C renal = test system: SN12C renal
KM12 colon = test system: KM12 colon
COLO 205 colon = test system: COLO 205 colon
UACC-62 melanoma = test system: UACC-62 melanoma
UO-31 renal = test system: UO-31 renal
UACC-257 melanoma = test system: UACC-257 melanoma
SF-268 CNS = test system: SF-268 CNS
SNB-75 CNS = test system: SNB-75 CNS
HT29 colon = test system: HT29 colon
NCI-H460 lung = test system: NCI-H460 lung
T-47D breast = test system: T-47D breast
OVCAR-4 ovarian = test system: OVCAR-4 ovarian
HOP-62 NSCLC = test system: HOP-62 NSCLC
SF-539 CNS = test system: SF-539 CNS
MOLT-4 leukemia = test system: MOLT-4 leukemia
HCT-15 colon = test system: HCT-15 colon
LOX IMVI melanoma = test system: LOX IMVI melanoma
CCRF-CEM leukemia = test system: CCRF-CEM leukemia
ACHN renal = test system: ACHN renal
RPMI-8226 leukemia = test system: RPMI-8226 leukemia
SW-620 colon = test system: SW-620 colon
SK-OV-3 ovarian = test system: SK-OV-3 ovarian
A549 NSCLC = test system: A549 NSCLC
PC-3 prostate = test system: PC-3 prostate
MALME-3M melanoma = test system: MALME-3M melanoma
NCI/ADR-RES ovarian = test system: NCI/ADR-RES ovarian
M14 melanoma = test system: M14 melanoma
MCF7 breast = test system: MCF7 breast
NCI-H226 lung = test system: NCI-H226 lung
SF-295 CNS = test system: SF-295 CNS
SR leukemia = test system: SR leukemia
TK-10 renal = test system: TK-10 renal
SK-MEL-2 melanoma = test system: SK-MEL-2 melanoma
NCI-H522 lung = test system: NCI-H522 lung
SK-MEL-5 melanoma = test system: SK-MEL-5 melanoma
HCC-2998 colon = test system: HCC-2998 colon
K-562 leukemia = test system: K-562 leukemia
BT-549 breast = test system: BT-549 breast
OVCAR-8 ovarian = test system: OVCAR-8 ovarian
IGROV1 ovarian = test system: IGROV1 ovarian
MDA-MB-231 breast = test system: MDA-MB-231 breast
HCT-116 colon = test system: HCT-116 colon
OVCAR-5 ovarian = test system: OVCAR-5 ovarian
HS 578T breast = test system: HS 578T breast
MDA-MB-435 = test system: MDA-MB-435
DU-145 prostate = test system: DU-145 prostate
EKVX NSCLC = test system: EKVX NSCLC
786-0 renal = test system: 786-0 renal
SNB-19 CNS = test system: SNB-19 CNS

## COc1ccc2oc(=N)c(C(N)=S)cc2c1
MDA-N
  TGI: 67.5 µM
CAKI-1 renal
  TGI: > 100 µM
U251 CNS
  TGI: > 100 µM
HOP-92 NSCLC
  TGI: 50.7 µM
SK-MEL-28 melanoma
  TGI: > 100 µM
HL-60(TB) leukemia
  TGI: > 100 µM
RXF 393 renal
  TGI: 32.8 µM
SN12C renal
  TGI: 82.8 µM
KM12 colon
  TGI: 84.8 µM
COLO 205 colon
  TGI: > 100 µM
UACC-62 melanoma
  TGI: 34 µM
UO-31 renal
  TGI: 48.6 µM
UACC-257 melanoma
  TGI: 93.4 µM
SF-268 CNS
  TGI: 64.3 µM
SNB-75 CNS
  TGI: 74.8 µM
HT29 colon
  TGI: > 100 µM
NCI-H460 lung
  TGI: 39.7 µM
T-47D breast
  TGI: 99.3 µM
OVCAR-4 ovarian
  TGI: > 100 µM
HOP-62 NSCLC
  TGI: > 100 µM
SF-539 CNS
  TGI: 51.7 µM
MOLT-4 leukemia
  TGI: > 100 µM
HCT-15 colon
  TGI: 36.7 µM
LOX IMVI melanoma
  TGI: 33 µM
CCRF-CEM leukemia
  TGI: > 100 µM
ACHN renal
  TGI: 79.2 µM
RPMI-8226 leukemia
  TGI: 82.3 µM
SW-620 colon
  TGI: > 100 µM
SK-OV-3 ovarian
  TGI: > 100 µM
A549 NSCLC
  TGI: > 100 µM
PC-3 prostate
  TGI: 93.7 µM
MALME-3M melanoma
  TGI: 32.9 µM
NCI/ADR-RES ovarian
  TGI: 37.1 µM
M14 melanoma
  TGI: > 100 µM
MCF7 breast
  TGI: > 100 µM
NCI-H226 lung
  TGI: 44.3 µM
SF-295 CNS
  TGI: > 100 µM
SR leukemia
  TGI: > 100 µM
TK-10 renal
  TGI: 90.2 µM
SK-MEL-2 melanoma
  TGI: 38.3 µM
NCI-H522 lung
  TGI: 35.3 µM
SK-MEL-5 melanoma
  TGI: 57.8 µM
HCC-2998 colon
  TGI: 33.6 µM
K-562 leukemia
  TGI: > 100 µM
BT-549 breast
  TGI: 43.5 µM
OVCAR-8 ovarian
  TGI: 38.9 µM
IGROV1 ovarian
  TGI: > 100 µM
MDA-MB-231 breast
  TGI: 54.1 µM
HCT-116 colon
  TGI: 45.7 µM
OVCAR-5 ovarian
  TGI: > 100 µM
HS 578T breast
  TGI: 58.6 µM
MDA-MB-435
  TGI: > 100 µM
DU-145 prostate
  TGI: > 100 µM
EKVX NSCLC
  TGI: 95.7 µM
786-0 renal
  TGI: > 100 µM
SNB-19 CNS
  TGI: > 100 µM
